Test results published in patent publication US20210352950A1 (priority 2019, published 2021).

Columns and labels:
HCT116 cells = test: Muse cell viability assay (percentage of dead cells); conditions: HCT116, CTR medium, vitamin C ≥0.3 mM (350 μM), 24 hours
[1] = intraperitoneal injection; Chen et al., 2007; 2008; cited from earlier work
[2] = system: Phosphorylated histone H2AX; test: Histone H2AX phosphorylation (DNA damage, western blot); assay type: cell-based, human and murine; conditions: HCT116 and CT26.WT, STS 24 hours + vitamin C 350 μM 3 hours
Description: (§1) Cells were washed twice in ice-cold PBS and lysates were prepared in RIPA lysis buffer (50 mM Tris HCl pH 7.4, 150 mM NaCl, 1% NP-40, 0.25% deoxycholic acid, 1 mM EDTA) supplemented with protease and phosphatase inhibitors (protease inhibitor cocktail set III EDTA-free, Calbiochem, Cat. #: S39134; PhosStop, Roche), Samples were sonicated (bioruptor plus, diogenode) and centrifuged at 16.1 g for 30 minutes at 4° C. Tumor tissues were collected and snap frozen in liquid nitrogen immediately after mice were sacrificed, and stored in -80° C. until use. […] Protein concentrations were determined by BCA assay (Thermo Fisher Scientific, Cat. #: 23225). Proteins were diluted in 1× Laemmli sample buffer, boiled at 95° C. for 5 minutes and 30 μg of total proteins were separated by using SDS-PAGE and analyzed by western blotting by standard procedures. […] Membranes were incubated overnight at 4° C. with gentle shaking with the following primary antibodies: […] ADI-SPA894), FTH (1:1000, Cell Signaling, Cat. #: 3998), AMPK (1:1000, Cell Signaling, Cat. #: 2532), phospho-[…] AMPK (1:1000, Cell Signaling, Cat. #: 2535), eIF2a (1:1000, Cell signaling, Cat. #: 5324), phospho […] eIF2a (1:1000, Cell signaling, Cat. #: 3597), AKT (1:1000, Cell Signaling, Cat. #: 9272), phospho-[…] […] Bands intensity was quantified with NIH Image J software (version 1.48v).

[3] = system: HCT116 subcutaneous tumors; test: HCT116 xenograft tumor volume; assay type: in vivo, mouse; conditions: NSG mice
[4] = system: KRAS mutant cancer cells (HCT116, DLD-1, CT26.WT, H23, H727, PANC1); test: Muse cell viability assay, KRAS mutant panel; assay type: cell-based, human and murine; conditions: CTR condition, vitamin C ≥0.3 mM, 24 hours
FTH = FTH protein expression in cells (western blot); assay type: cell-based, human and murine; conditions: HCT116, CT26.WT, STS 24 hours + vitamin C 350 μM 3 hours
Description: as §1

[5] = system: phospho-AMPK (threonine 172); test: AMPK phosphorylation (western blot); assay type: cell-based, human; conditions: HCT116, STS 24 hours + vitamin C 350 μM 3 hours
Description: as §1

[6] = system: phospho-eIF2a (serine 51); test: eIF2a phosphorylation (western blot); assay type: cell-based, human; conditions: HCT116, STS 24 hours + vitamin C 350 μM 3 hours
Description: as §1

[7] = system: KRAS wild type cell lines (SW48, HT29, PC-3, COV362), normal colon cell line (CCD841CoN) and normal fibroblasts (BJ); test: Muse cell viability assay, KRAS wild type and normal cells; assay type: cell-based; conditions: single agent or in combination with STS condition
ROS in HCT116 cells = test: CellROX reactive oxygen species measurement; assay type: cell-based, human; conditions: HCT116, vitamin C 1 mM as single intervention, 30 minutes
Description: Intracellular reactive-oxygen species (ROS) were measured using the CellROX oxidative stress reagents (Life Technologies, Cat. #: 10422). CellROX fluorogenic probe is designed to measure reactive-oxygen species (ROS) in live cells. […] For ROS measurement, cells were seeded in 10 cm petri dish (4×10^5 cells in CTR medium). After 24 hours cells were rinsed twice in 1×PBS and CTR or STS medium was added. 24 hours later, cells were trypsinized, resuspended in their respective media, and treated with 1 mM sodium ascorbate and 1 μM CellROX deep red reagent in the dark, for 30 minutes at 37° C. and 5% CO2. Then, fluorescence was immediately analyzed by flow cytometry (Attune NxT flow cytometer). Data were processed by Kaluza analysis software (Beckman coulter, version 2.0). Data were expressed as fold change of the median fluorescent intensity (MFI) of each treated sample versus the MFI of control sample.

HO-1 [8] = test: HO-1 protein expression in grafted HCT116 tumors; assay type: in vivo, mouse; conditions: ad libitum or FMD cycles, vitamin C 4 g/kg i.p. twice a day
phospho-AKT (serine 473) = test: AKT phosphorylation (western blot); assay type: cell-based, human; conditions: HCT116, STS 24 hours + vitamin C 350 μM 3 hours
Description: as §1

HO-1 [9] = test: HO-1 protein expression in CT26.WT (western blot); assay type: cell-based, murine; conditions: vitamin C 350 μM 3 hours
Description: as §1

Structure (SMILES): O=C1O[C@H]([C@@H](O)CO)C(O)=C1O [vitamin C, ascorbic acid]
- cell death (HCT116 cells): able to induce cell death
- vitamin C level reached by parenteral (intraperitoneal) administration [1]: 3 mM
- DNA damage measured by phosphorylation level of histone H2AX [2]: strongly induced DNA damage
- tumor progression, single interventions ([3]; 3-days FMD every week or vitamin C 4 g/kg i.p. twice a day): delayed tumor progression
- anti-cancer effect combined with fasting cycles ([3]; 3 cycles of fasting (2 days, water only) + vitamin C 4 g/kg i.p. twice a day): significantly enhanced
- sensitivity to vitamin C [4]: modest sensitivity
- FTH protein expression level (FTH): reduces FTH protein expression level
- AMPK phosphorylation level [5]: strongly up-regulated AMPK phosphorylation level
- eIF2a phosphorylation level [6]: significantly induced the phosphorylation level
- sensitivity to vitamin C treatment [7]: not sensitive
- ROS levels (ROS in HCT116 cells): increase ROS levels
- HO-1 protein expression level in grafted tumors (HO-1 [8]): HO-1 up-regulation
- AKT phosphorylation level (downregulated upon STS) (phospho-AKT (serine 473)): potentiated even further
- HO-1 protein expression level (HO-1 [9]): up-regulates HO-1 expression level
